Reference: ChEMBL document CHEMBL1201862, “PubChem BioAssay data set” (2004)
The source made the active and inactive calls.

How the values were obtained:
Beta-galactosidase = Beta-galactosidase (Escherichia coli, UniProt Q8VNN2); assay: Dose response counterscreen for EBI2 assay utilizing the enzyme, b-galactosidase.; assay type: functional
[1] = potency of ADAM10 substrate cleavage blockers – biochemical, QFRET, dose response (AID 743254);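 also: ADAM10 enzyme with the DM2 quenched FRET peptide as substrate; EDANS fluorescence gain as the protease cuts the substrate; inhibitor potency against ADAM10 proteolytic activity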
[2] = biological target: T1, Disintegrin and metalloproteinase domain-containing protein 17 (Homo sapiens, UniProt P78536); assay: inhibition of ADAM17 substrate cleavage – biochemical, quenched FRET substrate, counter-screen for ADAM10 exosite inhibitor project, dose response (AID 743253)
HEK293 [3] = assay: inhibition of NOD1-driven NF-kB reporter – cell-based, luminescence, uHTS, primary screen (AID 1578); assay type: functional; details: Homo sapiens
HEK293 [4] = assay: cells; assay type: functional, cell-based; details: Homo sapiens
HEK293 [5] = assay: cells; assay type: functional, cell-based; details: Homo sapiens; remark: listed apart in the source
[6] = biological target: Nucleotide-binding oligomerization domain-containing protein 2 (Homo sapiens, UniProt Q9HC29); assay: inhibition of NOD2-driven NF-kB reporter – cell-based, luminescence, uHTS, HEK293 (AID 1566); assay type: functional
HEK293 [7] = assay: NOD2 signaling inhibitors in MDP-stimulated cells, cell-based, uHTS, luminescence (AID 2001); assay type: functional; details: Homo sapiens
HEK293 [8] = assay: cells; assay type: functional, cell-based; details: Homo sapiens; remark: listed apart in the source
Tumor necrosis factor = Tumor necrosis factor (Homo sapiens, UniProt P01375); assay: analog potency on TNFa NF-kB signaling – cell-based, revised, SAR follow-up (AID 2337); assay type: functional
[9] = biological target: T2, Nucleotide-binding oligomerization domain-containing protein 1 (Homo sapiens, UniProt Q9Y239); assay: blockers of NOD1 pathway activity – revised, SAR follow-up (AID 2333); assay type: functional
T2 sequence (Q9Y239 whole entry): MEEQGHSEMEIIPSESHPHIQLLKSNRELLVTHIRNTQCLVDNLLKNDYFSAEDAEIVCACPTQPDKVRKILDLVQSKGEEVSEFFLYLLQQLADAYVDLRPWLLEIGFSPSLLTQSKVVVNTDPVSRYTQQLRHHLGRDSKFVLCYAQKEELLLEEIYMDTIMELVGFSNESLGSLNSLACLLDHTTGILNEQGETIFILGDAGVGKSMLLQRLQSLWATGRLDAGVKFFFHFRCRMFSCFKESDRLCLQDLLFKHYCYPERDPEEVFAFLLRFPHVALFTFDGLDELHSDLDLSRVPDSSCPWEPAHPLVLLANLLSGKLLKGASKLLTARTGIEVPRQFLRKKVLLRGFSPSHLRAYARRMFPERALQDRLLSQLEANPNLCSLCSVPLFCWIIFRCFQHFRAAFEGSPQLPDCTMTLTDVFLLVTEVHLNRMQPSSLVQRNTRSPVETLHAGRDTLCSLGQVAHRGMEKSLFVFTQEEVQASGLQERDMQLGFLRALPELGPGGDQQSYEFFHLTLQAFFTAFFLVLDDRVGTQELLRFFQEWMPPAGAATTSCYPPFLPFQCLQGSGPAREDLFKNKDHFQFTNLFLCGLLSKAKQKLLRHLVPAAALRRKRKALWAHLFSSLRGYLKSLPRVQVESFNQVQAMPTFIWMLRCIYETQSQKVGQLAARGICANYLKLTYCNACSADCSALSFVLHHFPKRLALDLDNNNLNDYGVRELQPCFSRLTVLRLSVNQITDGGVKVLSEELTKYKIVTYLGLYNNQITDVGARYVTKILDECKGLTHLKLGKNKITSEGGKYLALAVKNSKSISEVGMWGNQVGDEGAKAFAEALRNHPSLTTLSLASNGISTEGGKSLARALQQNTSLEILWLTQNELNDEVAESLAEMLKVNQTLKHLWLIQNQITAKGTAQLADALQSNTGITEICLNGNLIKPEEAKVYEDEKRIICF

Genome polyprotein = Genome polyprotein (dengue virus type 2, UniProt P29990); assay: flavivirus cap methylation enzyme inhibition – biochemical, confirmation dose response, primary screen (AID 588689); assay type: functional
Major prion protein = Major prion protein (Homo sapiens, UniProt P04156); assay type: functional, cell-based
HEK293 [10] = assay: cells; details: Homo sapiens
[11] = biological target: SWI/SNF-related matrix-associated actin-dependent regulator of chromatin subfamily A member 2 (Homo sapiens, UniProt P51531); assay: Luminescence-based cell-based high throughput dose response assay to identify activators of the function of SWI/SNF related, matrix associated, actin dependent regulator of chromatin, subfamily a, member 2 (SMARCA2, BRM).; assay type: functional
[12] = Counterscreen for activators of the function of SWI/SNF related, matrix associated, actin dependent regulator of chromatin, subfamily a, member 2 (SMARCA2, BRM): Luminescence-based cell-based high throughput dose response assay to identify non-selective compounds using the VP16 reporter assay.; assay type: functional
[13] = biological target: T1, Disintegrin and metalloproteinase domain-containing protein 17; assay: exosite inhibitors of ADAM17, dose response, biochemical (AID 743260)
[14] = inhibition of ADAM10 peptide cleavage – biochemical, FRET peptide substrate, recombinant human ADAM10, selectivity assay for ADAM17 exosite inhibitor project, dose response (AID 743259);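 also: ADAM10 enzyme cleaving a FRET peptide substrate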
Protein skinhead-1 = biological target: T3, Protein skinhead-1 (Caenorhabditis elegans, UniProt P34707); assay type: functional
T3 sequence (P34707 whole entry): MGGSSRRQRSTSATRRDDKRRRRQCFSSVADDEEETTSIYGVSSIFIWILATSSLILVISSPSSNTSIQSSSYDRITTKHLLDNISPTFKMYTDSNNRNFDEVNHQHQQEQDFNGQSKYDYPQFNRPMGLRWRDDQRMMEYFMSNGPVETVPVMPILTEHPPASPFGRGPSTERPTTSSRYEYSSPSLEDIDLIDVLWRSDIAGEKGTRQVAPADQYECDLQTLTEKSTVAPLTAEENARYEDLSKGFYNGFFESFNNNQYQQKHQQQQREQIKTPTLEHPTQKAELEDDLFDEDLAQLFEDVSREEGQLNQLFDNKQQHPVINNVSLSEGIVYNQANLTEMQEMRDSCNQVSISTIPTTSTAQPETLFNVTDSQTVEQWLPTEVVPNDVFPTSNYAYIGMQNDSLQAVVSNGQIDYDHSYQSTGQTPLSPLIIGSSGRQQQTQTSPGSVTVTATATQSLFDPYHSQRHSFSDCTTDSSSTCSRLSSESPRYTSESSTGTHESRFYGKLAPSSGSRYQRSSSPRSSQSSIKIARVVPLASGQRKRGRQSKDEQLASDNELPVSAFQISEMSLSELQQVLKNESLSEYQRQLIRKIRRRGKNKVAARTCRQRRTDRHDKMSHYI

[15] = biological target: T4, High affinity choline transporter 1 (Homo sapiens, UniProt Q9GZV3); assay: human choline transporter blockers, potency – cell-based, 5-point CRC, membrane potential dye, dose response (AID 504840); assay type: functional
T4 sequence (Q9GZV3 whole entry): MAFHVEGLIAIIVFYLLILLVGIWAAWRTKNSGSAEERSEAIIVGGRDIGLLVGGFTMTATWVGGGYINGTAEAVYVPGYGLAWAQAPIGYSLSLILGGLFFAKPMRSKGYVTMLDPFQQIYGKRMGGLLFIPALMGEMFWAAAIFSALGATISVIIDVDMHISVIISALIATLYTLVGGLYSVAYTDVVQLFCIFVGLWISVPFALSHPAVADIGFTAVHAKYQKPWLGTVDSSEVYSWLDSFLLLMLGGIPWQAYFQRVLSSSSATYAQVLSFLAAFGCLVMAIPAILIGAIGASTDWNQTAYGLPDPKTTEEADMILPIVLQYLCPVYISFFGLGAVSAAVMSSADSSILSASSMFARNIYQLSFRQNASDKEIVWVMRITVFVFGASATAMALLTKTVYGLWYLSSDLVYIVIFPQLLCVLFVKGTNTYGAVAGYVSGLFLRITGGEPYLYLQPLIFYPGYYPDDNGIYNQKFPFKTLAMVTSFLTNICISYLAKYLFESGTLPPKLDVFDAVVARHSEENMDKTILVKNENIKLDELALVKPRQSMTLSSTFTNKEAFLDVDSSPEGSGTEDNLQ

[16] = Trypanosoma cruzi growth suppression in host cells – NIH3T3 host cells, beta-gal luminescence, confirmation (AID 2044); assay type: functional, cell-based;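 also: intracellular parasites grown in NIH/3T3 mouse fibroblasts as host cells; luminescent beta-galactosidase reporter signal from transgenic T. cruzi replicating inside host cells; inhibitors lower the luminescence signal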
[17] = NIH3T3 cell viability loss – ATP luminescence, mouse fibroblasts, counter-screen, dose response (AID 2010); assay type: functional, cell-based;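 also: cells exposed to compound for about 90 hours before reading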

With `O=C(c1cc2ccccc2o1)N1CCN(c2ccccc2Cl)CC1` the IC50 (Beta-galactosidase) was > 80 µM (inactive).
For `CCC1NC(=O)c2cc3ccccc3cc2-n2c1nc1cc(C)cc(C)c1c2=O` (configuration not stated), the IC50 (Beta-galactosidase) was > 80 µM (inactive).
With `CCC1CO/C(=C(\C(Cl)=C(Cl)Cl)[N+](=O)[O-])N1` (configuration not stated) the IC50 [1] was 14.9 µM (inactive) and the IC50 [2] was 27.9 µM (inactive).
In the case of `COc1cc(C(=O)Nc2scc(-c3ccc(Br)cc3)c2C(=O)O)cc(OC)c1OC`, the EC50 (HEK293 [3]) is reported as 3.97 µM (active), the IC50 (HEK293 [4]) is reported as > 20 µM (inactive) and the IC50 (HEK293 [5]) is reported as > 20 µM (inactive). The EC50 [6] was 13.9 µM (active), the IC50 (HEK293 [7]) was 13.2 µM (inactive) and the IC50 (HEK293 [8]) was 19 µM (active). The IC50 (Tumor necrosis factor) was 6.88 µM (active), the IC50 [9] was 5.83 µM (active) and the IC50 (Genome polyprotein) was 58 µM (active). The IC50 (Major prion protein) was 5.71 µM (active), the IC50 (HEK293 [10]) was 13.6 µM (active) and the IC50 (cells) was > 138 µM (inactive).
In the case of `O=C(CSc1nc2ccccc2s1)N/N=C/c1ccco1`, the EC50 [11] is reported as > 91.2 µM (inactive) and the EC50 [12] is reported as > 91.2 µM (inactive).
In the case of `Cc1ccc(-c2cc(C(=O)NN=Cc3cccc(OCc4ccccc4)c3)[nH]n2)cc1C`, the IC50 [13] is reported as > 69.5 µM (inactive) and the IC50 [14] is reported as > 69.5 µM (inactive).
With `O=C(c1cccs1)N1CCc2c([nH]c3ccccc23)C1c1ccc(Cl)cc1` (configuration not stated) the IC50 (Protein skinhead-1) was > 100 µM (inactive), the IC50 [1] was > 69.5 µM (inactive) and the IC50 [13] was > 69.5 µM (inactive). For the same compound, the IC50 [14] was 32.4 µM (inactive) and the IC50 [2] was > 69.5 µM (inactive).
In the case of `Nc1nc2ccc(Cl)cc2cc1C(=O)NCc1ccccc1Br`, the IC50 (Major prion protein) is reported as 7.35 µM (active) and the IC50 (cells) is reported as 46.3 µM (inactive).
In the case of `Cc1csc(NC(=O)CSc2nc(C(C)C)nc3ccccc23)n1`, the IC50 [15] is reported as 7.94 µM (active), the IC50 (Major prion protein) is reported as 2.05 µM (active) and the IC50 (cells) is reported as 69.1 µM (inactive).
For `CC(C)(C)OC(=O)NCCCC[C@H](NC(=O)c1[nH]cnc1C(=O)NC(c1ccccc1)c1ccccc1)C(=O)OC(C)(C)C`, the EC50 [16] was 3.48 µM (active), the EC50 [17] was > 60 µM (not active) and the IC50 [1] was 10.6 µM (inactive). The IC50 [2] was > 69.5 µM (inactive).
In the case of `COC(=O)Nc1ccc(OCc2ccccc2)cc1`, the EC50 [11] is reported as > 91.2 µM (inactive) and the EC50 [12] is reported as > 91.2 µM (inactive).
In the case of `O=C(c1ccc2ccccc2c1)N1CCN(c2ccc(C(F)(F)F)cn2)CC1`, the IC50 (Beta-galactosidase) is reported as > 80 µM (inactive).
